Test results taken from US10206944B2, “Chondroitin for use in medicine” (ALTERGON S.A., priority 2012, dated 2019).
“Also recorded” adds a separate entry of the source.

What was measured:
Sox9 = experiment: Real-Time PCR gene expression in human chondrocytes: Sox9; assay type: cell-based; conditions: 1% w/v, ratio to untreated control
Description: To evaluate the biological effects of chondroitin on human chondrocyte cultures, the expression of a set of genes considered key to establishing the phenotype, and suitable markers for evaluating the quality of the tissue generated, was determined. The study was conducted on chondrocytes prepared from human cartilage, as reported in Example 2, the cells being grown in the presence of chondroitin or chondroitin sulphate. Using a standard procedure, 5*10^4 cells per well were seeded in a 24-well multiwell plate. The chondrocytes were grown in DMEM containing 1% w/v of chondroitin or chondroitin sulphate (endotoxin content ≤0.1 EU/mg). The cells were stimulated for 4, 7 and 10 days (Ishak et al., International J. of Pediatric Otorhinolaryngology, 2011, 75: 835-840), after which the RNA was extracted with Trizol Reagent, as described in the kit manual (Life Technologies Ltd, Milan, Italy). A qualitative morphological analysis of the cell culture was also conducted at the various times, in parallel with RNA extraction, by observing the corresponding samples at 4, 7 and 10 days under the optical microscope. The cells seeded at the three different times were observed under the microscope, and the images that best represented the cell growth conditions were acquired using a time-lapse videomicroscopy workstation. After RNA extraction, reverse transcription was performed with a total of 1 μg RNA and then with amplification by Real-Time PCR of genes which are specific markers for chondrocytes (Table 3).
Genes connected with matrix production, such as aggrecan, type I collagen, type II collagen and the Sox9 gene, the expression of which is closely correlated with the expression of type II collagen, were analysed as specific markers for differentiation and characterisation of chondrocytes. (Akiyama H., Mod Rheumatol., 2008, 18(3): 213-9; Yang et al., J. of Orthopaedic Res. 2011).
The gene expression of said markers on human chondrocytes cultured in basic medium (control) and with chondroitin treatment (C) or chondroitin sulphate treatment (CS) was analysed on cell cultures in the second and third growth phases.
The results of the gene expression analysis were reported as the average of at least 3 independent experiments for tests conducted in the presence of C or CS, on cells in phases 2 and 3.

[1] = tested on: 5 strains of Salmonella typhimurium; experiment: Ames' test; assay type: cell-based; conditions: up to 2.0 mg/plate, with and without metabolic activation
Description: The chondroitin mutagenicity studies were conducted on different mutagenicity and genotoxicity models in vitro and in vivo (Sirtori C., File CONDRAL®, Vol. IV—Reproductive Toxicity and Mutagenesis; Slater E. et al., Rapid detection of mutagens and carcinogens, Cancer Res. 1971, 31: 970-973).
In vitro test, Ames' test—The test was performed with and without metabolic activation on 5 strains of Salmonella typhimurium. Chondroitin was tested at concentrations of between 2.0 μg/plate and 2.0 mg/plate.

rats (Sprague Dawley) = experiment: Chronic toxicity study, 26 weeks; assay type: in vivo; conditions: rat
Description: Chronic toxicity study—This study was conducted on rats (Sprague Dawley) treated daily for 26 weeks with chondroitin administered p.o. (by gavage) at doses ranging from 50 to 200 mg/Kg. The general state of health and behaviour of the treated animals were monitored daily, and weight variations, haematological status and urine were evaluated every 7 days. […] At the end of the study all animals were euthanized and an autopsy and histopathological analysis of the main organs (lungs, heart, liver, ovaries, uterus, testicles, kidneys, pituitary gland, lymph nodes and gastrointestinal tract) were conducted. None of these evaluations indicated any significant differences between the animals treated with chondroitin and the control animals which received the carrier alone.

Wistar rats = experiment: Study of fertility and reproductive capacity; assay type: in vivo, rat
Description: Study of fertility and reproductive capacity—The toxicology study of the possible effects of chondroitin on male fertility and female reproductive capacity was conducted on 200 Wistar rats (160 females and 40 males), randomised into four groups, each consisting of 40 females and 10 males, treated with 0, 50, 100 or 200 mg/Kg of chondroitin. Each group of female rats was divided in turn into two sub-groups of 20 animals; the first group received the product daily from the 14th day before the start of the mating period until the 19th day of gestation, and the second received it until the 21st day after the birth. All the males were treated with chondroitin for 60 days before mating and throughout the gestation period of the females. The protocol used follows the guidelines of Directive EEC 85/571.

[2] = tested on: Enterococcus faecalis strain ATCC 19433; experiment: Inhibition of bacterial growth on plate, E. faecalis; assay type: cell-based
Description: The antibacterial activity of chondroitin (C) and chondroitin sulphate (CS) on the growth of Escherichia coli ATCC 25922 and Enterococcus faecalis ATCC 19433 on a solid medium in vitro was examined. The concentrations explored ranged from 40 μg/mL to 40 mg/mL of C or CS as final concentrations in the medium. Brain-heart infusion (Oxoid) was used as culture medium for E. coli ATCC 25922, and M17 (Oxoid) for E. faecalis ATCC 19433; both media were adjusted to the same pH and the same osmolarity before being solidified by adding agar and cooled. 100 μL of a bacterial suspension containing 10^2, 10^3 or 10^4 bacteria/mL was plated as inoculum. […] The number of colonies was then counted on control plates in the absence of the substances under study and on plates at the various concentrations of C and CS. The data from the experiments for the two micro-organisms, conducted in triplicate for each of the conditions, are shown in tables 7 and 8.

type II collagen = experiment: Phenotype analysis with immunohistochemical tests on human chondrocytes; assay type: cell-based
Description: The evaluation of the chondrocyte phenotype of fresh cells extracted from human cartilage tissue samples and after 4, 7 and 10 days' growth in medium containing chondroitin or chondroitin sulphate was conducted with immunohistochemical tests, using the Envision+(DaKo) kit which uses an antibody for type II collagen, considered to be a specific marker for chondrocyte differentiation (Stokes et al., Biochem. J., 2001, 360:461-470).

[3] = 40 μg/mL, 10 bacteria inoculated
[4] = 40 μg/mL, 100 bacteria inoculated
[5] = 40 μg/mL, 1000 bacteria inoculated
[6] = 400 μg/mL, 10 bacteria inoculated
[7] = 400 μg/mL, 100 bacteria inoculated
[8] = 400 μg/mL, 1000 bacteria inoculated
[9] = 4 mg/mL, 10 bacteria inoculated
[10] = 4 mg/mL, 100 bacteria inoculated
[11] = 4 mg/mL, 1000 bacteria inoculated
[12] = 40 mg/mL (maximum concentration)
[13] = 40 mg/mL, 10 bacteria inoculated
[14] = 40 mg/mL, 100 bacteria inoculated
[15] = 40 mg/mL, 1000 bacteria inoculated

Substance | Fold Expression, Sox9 (Sox9; phase II, 4 g) | Fold Expression, Sox9 (Sox9; phase II, 7 g) | Fold Expression, Sox9 (Sox9; phase II, 10 g) | Fold Expression, Sox9 (Sox9; phase III, 4 g) | Fold Expression, Sox9 (Sox9; phase III, 7 g) | Fold Expression, Sox9 (Sox9; phase III, 10 g) | CFU after 36 h [2, 3] [CFU] | CFU after 36 h [2, 4] [CFU] | CFU after 36 h [2, 5] [CFU] | Inhibition factor ([2]; 400 μg/mL) | Qualitative valuation of inhibition ([2]; 400 μg/mL) | CFU after 36 h [2, 6] [CFU] | CFU after 36 h [2, 7] [CFU] | CFU after 36 h [2, 8] [CFU] | Inhibition factor ([2]; 4 mg/mL) | Qualitative valuation of inhibition ([2]; 4 mg/mL) | CFU after 36 h [2, 9] [CFU] | CFU after 36 h [2, 10] [CFU] | CFU after 36 h [2, 11] [CFU] | Qualitative valuation of inhibition ([2]; 40 mg/mL) | other results
chondroitin | 1.87 ± 0.85 | 1.16 ± 0.15 | 1.78 ± 0.75 | 3.68 ± 0.44 | 1.09 ± 0.01 | 0.53 ± 0.02 | 8 ± 2 | 82 ± 5 | 870 ± 70 | 2 | significant | 5 ± 1 | 55 ± 6 | 480 ± 30 | 6.1 | significant | 0 | 18 ± 4 | 150 ± 4 | high | point-reverse mutation (Ames' test) [1]: do not induce a specific point-reverse mutation; also recorded: Up to 2.0 mg/plate: no point-reverse mutation; chronic toxicity, conclusion (rats (Sprague Dawley); 50 to 200 mg/Kg p.o., 26 weeks): non-toxic at the doses used; No toxicity (dose), chronic 26 weeks (rats (Sprague Dawley); p.o., daily for 26 weeks): No toxicity >200 mg/kg/day p.o.; effect on fertility of male rats (Wistar rats; daily oral administration for 60 days, up to 200 mg/Kg): no effect on the fertility of male rats; also recorded: the dose of 200 mg/Kg, has no effect on the fertility of male; effect on reproductive capacity of females (Wistar rats; daily up to 200 mg/Kg, 15 days before mating to 21st day of lactation): no effect on the reproductive capacity of females; also recorded: no effect on the reproductive capacity of the females; Inhibition factor ([2]; 40 μg/mL): 1.2; Qualitative valuation of inhibition ([2]; 40 μg/mL): mild; Inhibition factor [2, 12]: 50; CFU after 36 h [2, 13]: 0 CFU; CFU after 36 h [2, 14]: 0 CFU; CFU after 36 h [2, 15]: 20 ± 2 CFU; positivity to type II collagen (type II collagen; after 4 days' treatment): strong positivity to type II collagen; positivity to type II collagen (type II collagen; longer times (7 and 10 days)): only maintained for longer times (7 and 10 days) in the cells treated with chondroitin
chondroitin sulphate [CS, reference compound] | 2.2 ± 1.20 | 0.86 ± 0.31 | 0.53 ± 0.02 | 2.6 ± 1.21 | 1.41 ± 0.04 | 0.81 ± 0.05 | 8 ± 2 | 90 ± 7 | 960 ± 70 | 1.3 | mild | 7 ± 1 | 80 ± 5 | 780 ± 70 | 2 | significant | 5 ± 1 | 48 ± 4 | 520 ± 30 | high | Inhibition factor [2, 12]: 7.4; CFU after 36 h [2, 13]: 0 CFU; CFU after 36 h [2, 14]: 15 ± 2 CFU; CFU after 36 h [2, 15]: 120 ± 10 CFU; positivity to type II collagen (type II collagen; after 4 days' treatment): strong positivity to type II collagen
